Reference: the supplement of paper PMC11482750
± gives the standard deviation of the averaged measurements.

Assays:
Experiment in all cases: control-subtracted net OSN firing rate; higher = stronger neuronal activation
[1] = test system: S. flava pb1a-like
Experimental: (§1)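 Dose-response single sensillum recordings from pb1a (D. melanogaster Canton-S) and pb1a-like (Scaptomyza) maxillary palp OSNs. Odorants were given at 10^-5 to 10^-2 vol/vol in mineral oil (γ-hexalactone in DMSO) as 1 s pulses. The read-out is the control-subtracted net spikes/s in a 0.5 s window.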

[2] = test system: S. montana pb1a-like
Experimental: as §1

[3] = test system: Canton-S pb1a
Experimental: as §1

[4] = test system: S. hsui pb1a-like
Experimental: as §1

[5] = test system: S. pallida pb1a-like
Experimental: as §1

[6] = odorant dilution (vol/vol): 10^-2
[7] = odorant dilution (vol/vol): 10^-3
[8] = odorant dilution (vol/vol): 10^-4
[9] = odorant dilution (vol/vol): 10^-5

Compound: CC(C)CN=C=S [isobutyl isothiocyanate]
- control-subtracted net OSN firing rate [1, 6]: 179 ± 22 spikes/s
- control-subtracted net OSN firing rate [1, 7]: 93 ± 16 spikes/s
- control-subtracted net OSN firing rate [1, 8]: 23.3 ± 7.5 spikes/s
- control-subtracted net OSN firing rate [1, 9]: 5.67 ± 4.6 spikes/s
- control-subtracted net OSN firing rate [2, 6]: 164 ± 20 spikes/s
- control-subtracted net OSN firing rate [2, 7]: 84.7 ± 14 spikes/s
- control-subtracted net OSN firing rate [2, 8]: 17.3 ± 5.9 spikes/s
- control-subtracted net OSN firing rate [2, 9]: 2 ± 5.8 spikes/s

Compound: CCC(C)N=C=S (centres undefined) [sec-butyl isothiocyanate]
- control-subtracted net OSN firing rate [1, 6]: 76.6 ± 22 spikes/s
- control-subtracted net OSN firing rate [1, 7]: 19.7 ± 11 spikes/s
- control-subtracted net OSN firing rate [1, 8]: 3.14 ± 6.4 spikes/s
- control-subtracted net OSN firing rate [1, 9]: -2.57 ± 5.9 spikes/s
- control-subtracted net OSN firing rate [2, 6]: 72.7 ± 9.3 spikes/s
- control-subtracted net OSN firing rate [2, 7]: 13.3 ± 9.4 spikes/s
- control-subtracted net OSN firing rate [2, 8]: -0.667 ± 7.1 spikes/s
- control-subtracted net OSN firing rate [2, 9]: 0.667 ± 4.8 spikes/s

Compound: CCCCN=C=S [butyl isothiocyanate]
- control-subtracted net OSN firing rate [1, 6]: 146 ± 29 spikes/s
- control-subtracted net OSN firing rate [1, 7]: 65.7 ± 36 spikes/s
- control-subtracted net OSN firing rate [1, 8]: 21.7 ± 10 spikes/s
- control-subtracted net OSN firing rate [1, 9]: -4 ± 10 spikes/s
- control-subtracted net OSN firing rate [2, 6]: 124 ± 14 spikes/s
- control-subtracted net OSN firing rate [2, 7]: 42.3 ± 22 spikes/s
- control-subtracted net OSN firing rate [2, 8]: 10 ± 14 spikes/s
- control-subtracted net OSN firing rate [2, 9]: 0.667 ± 9.1 spikes/s

Compound: CCC/C=C/C=O [trans-2-hexenal]
- control-subtracted net OSN firing rate [3, 6]: 121 ± 35 spikes/s
- control-subtracted net OSN firing rate [3, 7]: 34.7 ± 14 spikes/s
- control-subtracted net OSN firing rate [3, 8]: 5 ± 3.5 spikes/s
- control-subtracted net OSN firing rate [3, 9]: -3 ± 6.4 spikes/s
- control-subtracted net OSN firing rate [1, 6]: 169 ± 30 spikes/s
- control-subtracted net OSN firing rate [1, 7]: 159 ± 33 spikes/s
- control-subtracted net OSN firing rate [1, 8]: 136 ± 33 spikes/s
- control-subtracted net OSN firing rate [1, 9]: 58.6 ± 19 spikes/s
- control-subtracted net OSN firing rate [4, 6]: 130 ± 48 spikes/s
- control-subtracted net OSN firing rate [4, 7]: 55.7 ± 31 spikes/s
- control-subtracted net OSN firing rate [4, 8]: 9 ± 11 spikes/s
- control-subtracted net OSN firing rate [4, 9]: 2.67 ± 11 spikes/s
- control-subtracted net OSN firing rate [2, 6]: 187 ± 11 spikes/s
- control-subtracted net OSN firing rate [2, 7]: 156 ± 23 spikes/s
- control-subtracted net OSN firing rate [2, 8]: 72 ± 19 spikes/s
- control-subtracted net OSN firing rate [2, 9]: 26.7 ± 4.8 spikes/s
- control-subtracted net OSN firing rate [5, 6]: 145 ± 31 spikes/s
- control-subtracted net OSN firing rate [5, 7]: 119 ± 40 spikes/s
- control-subtracted net OSN firing rate [5, 8]: 26.4 ± 24 spikes/s
- control-subtracted net OSN firing rate [5, 9]: 5.78 ± 13 spikes/s

Compound: CCCC(=O)OCC [ethyl butyrate]
- control-subtracted net OSN firing rate [3, 6]: 211 ± 10 spikes/s
- control-subtracted net OSN firing rate [3, 7]: 209 ± 12 spikes/s
- control-subtracted net OSN firing rate [3, 8]: 76.3 ± 41 spikes/s
- control-subtracted net OSN firing rate [3, 9]: 12.9 ± 4.5 spikes/s
- control-subtracted net OSN firing rate [1, 6]: 208 ± 60 spikes/s
- control-subtracted net OSN firing rate [1, 7]: 170 ± 59 spikes/s
- control-subtracted net OSN firing rate [1, 8]: 52.8 ± 54 spikes/s
- control-subtracted net OSN firing rate [1, 9]: 2 ± 7.4 spikes/s
- control-subtracted net OSN firing rate [4, 6]: 150 ± 38 spikes/s
- control-subtracted net OSN firing rate [4, 7]: 118 ± 43 spikes/s
- control-subtracted net OSN firing rate [4, 8]: 46 ± 21 spikes/s
- control-subtracted net OSN firing rate [4, 9]: 11 ± 22 spikes/s
- control-subtracted net OSN firing rate [2, 6]: 236 ± 60 spikes/s
- control-subtracted net OSN firing rate [2, 7]: 150 ± 70 spikes/s
- control-subtracted net OSN firing rate [2, 8]: 42.5 ± 25 spikes/s
- control-subtracted net OSN firing rate [2, 9]: 7.5 ± 3.5 spikes/s
- control-subtracted net OSN firing rate [5, 6]: 142 ± 26 spikes/s
- control-subtracted net OSN firing rate [5, 7]: 135 ± 24 spikes/s
- control-subtracted net OSN firing rate [5, 8]: 111 ± 39 spikes/s
- control-subtracted net OSN firing rate [5, 9]: 20.2 ± 19 spikes/s

Compound: CCC1CCC(=O)O1 (centres undefined) [γ-hexalactone]
- control-subtracted net OSN firing rate [3, 6]: 286 ± 56 spikes/s
- control-subtracted net OSN firing rate [3, 7]: 217 ± 84 spikes/s
- control-subtracted net OSN firing rate [3, 8]: 33 ± 18 spikes/s
- control-subtracted net OSN firing rate [3, 9]: 22.7 ± 15 spikes/s
- control-subtracted net OSN firing rate [1, 6]: 182 ± 37 spikes/s
- control-subtracted net OSN firing rate [1, 7]: 42.6 ± 26 spikes/s
- control-subtracted net OSN firing rate [1, 8]: 3.14 ± 9.9 spikes/s
- control-subtracted net OSN firing rate [1, 9]: -3.43 ± 8 spikes/s
- control-subtracted net OSN firing rate [4, 6]: 163 ± 14 spikes/s
- control-subtracted net OSN firing rate [4, 7]: 128 ± 14 spikes/s
- control-subtracted net OSN firing rate [4, 8]: 53 ± 17 spikes/s
- control-subtracted net OSN firing rate [4, 9]: 43.7 ± 11 spikes/s
- control-subtracted net OSN firing rate [2, 6]: 186 ± 42 spikes/s
- control-subtracted net OSN firing rate [2, 7]: 93.7 ± 28 spikes/s
- control-subtracted net OSN firing rate [2, 8]: 21.3 ± 13 spikes/s
- control-subtracted net OSN firing rate [2, 9]: -2 ± 9.8 spikes/s
- control-subtracted net OSN firing rate [5, 6]: 152 ± 15 spikes/s
- control-subtracted net OSN firing rate [5, 7]: 98.7 ± 50 spikes/s
- control-subtracted net OSN firing rate [5, 8]: 34.3 ± 35 spikes/s
- control-subtracted net OSN firing rate [5, 9]: 11.3 ± 15 spikes/s

Compound: C=CCN=C=S [allyl isothiocyanate]
- control-subtracted net OSN firing rate [3, 6]: 153 ± 42 spikes/s
- control-subtracted net OSN firing rate [3, 7]: 27 ± 7.3 spikes/s
- control-subtracted net OSN firing rate [3, 8]: 2 ± 5.9 spikes/s
- control-subtracted net OSN firing rate [3, 9]: -3.33 ± 5 spikes/s
- control-subtracted net OSN firing rate [1, 6]: 169 ± 40 spikes/s
- control-subtracted net OSN firing rate [1, 7]: 117 ± 38 spikes/s
- control-subtracted net OSN firing rate [1, 8]: 50 ± 28 spikes/s
- control-subtracted net OSN firing rate [1, 9]: 11.4 ± 14 spikes/s
- control-subtracted net OSN firing rate [4, 6]: 132 ± 49 spikes/s
- control-subtracted net OSN firing rate [4, 7]: 51.2 ± 27 spikes/s
- control-subtracted net OSN firing rate [4, 8]: 6.75 ± 6 spikes/s
- control-subtracted net OSN firing rate [4, 9]: -1 ± 12 spikes/s
- control-subtracted net OSN firing rate [2, 6]: 168 ± 26 spikes/s
- control-subtracted net OSN firing rate [2, 7]: 118 ± 33 spikes/s
- control-subtracted net OSN firing rate [2, 8]: 58.3 ± 35 spikes/s
- control-subtracted net OSN firing rate [2, 9]: 20 ± 9.4 spikes/s
- control-subtracted net OSN firing rate [5, 6]: 142 ± 25 spikes/s
- control-subtracted net OSN firing rate [5, 7]: 115 ± 44 spikes/s
- control-subtracted net OSN firing rate [5, 8]: 33.8 ± 19 spikes/s
- control-subtracted net OSN firing rate [5, 9]: 5.56 ± 14 spikes/s
